Measured values: patent publication US10407467B2, “Polymyxin derivatives and their use in combination therapy together with different antibiotics” (priority 2013, dated 2019)
Where a name gives a salt, the structure may show the parent alone. Numbered stars: 1 amine (or outer) side, 2 acyl side, 3 side chain; on linkers, the order of the positions; unused ones are H or OH. Bridge positions count the residues as written; N and C are the ends. Square brackets hold non-standard residues; d marks the D form. Peptide text beside a SMILES is read from it. * marks the point of attachment. ξ: configuration not given here. Cyclohexanoyl(cis-4-NH2) = N[C@H]1CC[C@@H](C(=O)*)CC1; GABA(4S-Me) = C[C@@H](CCC(=O)[*:2])N[*:1]; X17 = CN1CCN(c2ccc(C(=O)*)cc2)CC1; X8 = N[C@@H]1CC[C@H](C(=O)*)C1; Thr(3ξ) = CC(O)[C@H](N)C(=O)O; Propanoyl(3-OH) = O=C(CCO)*; Dab = NCC[C@H](N)C(=O)O; X14 = CC(C)(N)CCC(=O)*; Inp = O=C(O)C1CCNCC1

Columns and labels:
Type in all cases: cell-based
[1] = test system: Klebsiella pneumoniae; experiment: MIC, compound in combination with a second agent (broth microdilution); settings: 1:1 (wt:wt) combination with Rifampicin; for MIC K. pneumoniae NCTC 13438: strain NCTC 13438; for MIC K. pneumoniae ATCC 4352: strain ATCC 4352
Method in brief: (§1)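 Read-out is the total-drug MIC of a 1:1 weight ratio combination with another agent, e.g. rifampicin. Duplicates within 2-fold gave the lower value; wider spread meant a non-valid assay. Where compounds were tested multiple times, the mode is given.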

[2] = test system: Escherichia coli; experiment: as above; settings: 1:1 (wt:wt) combination with Rifampicin; for MIC E. coli NCTC9001: strain NCTC9001
Method in brief: as §1

[3] = test system: Pseudomonas aeruginosa; experiment: as above; settings: 1:1 (wt:wt) combination with Rifampicin
Method in brief: as §1

[4] = test system: Acinetobacter baumannii; experiment: as above; settings: 1:1 (wt:wt) combination with Rifampicin, MIC = total drug concentration; for MIC A. baumannii NCTC 13424: strain NCTC 13424
Method in brief: as §1

[5] = test system: Klebsiella pneumoniae; experiment: MIC, sole activity (no second agent); settings: in the absence of Rifampicin; for MIC K. pneumoniae ATCC 4352: strain ATCC 4352
Method in brief: (§2)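 Up to four strains per species were tested in cation-adjusted Mueller-Hinton broth, with inoculum made by direct colony suspension from 18-24 hour Mueller-Hinton agar plates, adjusted to 0.5 McFarland. Duplicates differing by under 2-fold gave the lower value; greater spread voided the run. Values are relative to Polymyxin B.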

[6] = test system: Pseudomonas aeruginosa; experiment: MIC, sole activity (no second agent); settings: in the absence of Rifampicin; strain ATCC27853
Method in brief: as §2

[7] = test system: Escherichia coli; experiment: MIC, sole activity (no second agent); settings: in the absence of Rifampicin; for MIC E. coli ATCC25922: strain ATCC25922
Method in brief: as §2

[8] = MIC = total drug concentration, strain ATCC-BAA-2146
[9] = MIC = total drug concentration, strain CCUG-59348
[10] = MIC = total drug concentration, strain ATCC25922
[11] = MIC = total drug concentration, strain CCUG 59626
[12] = MIC = total drug concentration, strain ATCC 27853
[13] = MIC is total drug concentration

MIC K. pneumoniae ATCC-BAA-2146 [1, 8] [micrograms/mL]	MIC K. pneumoniae CCUG-59348 [1, 9] [micrograms/mL]	MIC K. pneumoniae NCTC 13438 ([1]; MIC = total drug concentration) [micrograms/mL]	MIC E. coli ATCC25922 [2, 10] [micrograms/mL]	MIC P. aeruginosa CCUG 59626 [3, 11] [micrograms/mL]	MIC A. baumannii NCTC 13424 [4] [micrograms/mL]	MIC K. pneumoniae ATCC 4352 [5] [micrograms/mL]	MIC P. aeruginosa ATCC 27853 [6] [micrograms/mL]	MIC E. coli ATCC25922 [7] [micrograms/mL]	MIC P. aeruginosa ATCC 27853 [3, 12] [micrograms/mL]	Compound	further results
1	2	1	0.5	–	–	–	–	–	–	CC(C)C[C@@H]1NC(=O)[C@@H](CC(C)C)NC(=O)[C@H](CCN)NC(=O)[C@@H](NC(=O)[C@H](CCN)NC(=O)[C@@H](NC(=O)C(O)C2CCCCC2)C(C)O)CCNC(=O)[C@H](C(C)O)NC(=O)[C@H](CCN)NC(=O)[C@H](CCN)NC1=O (single isomer, unassigned; isomer 2) [Example 32, 2(RS)-(2-Hydroxy-2-cyclohexyl)ethanoyl polymyxin E nonapeptide, TFA salt. Isomer 2]	MIC E. coli NCTC9001 ([2]; MIC = total drug concentration): 1 micrograms/mL
0.25	4	0.25	–	0.125	<0.06	0.125	0.125	2	–	CC(C)C[C@@H]1NC(=O)[C@@H](Cc2ccccc2)NC(=O)[C@H](CCN)NC(=O)[C@@H](NC(=O)[C@H](CCN)NC(=O)[C@@H](NC(=O)[C@H]2CC[C@@H](N)CC2)C(C)O)CCNC(=O)[C@H](C(C)O)NC(=O)[C@H](CCN)NC(=O)[C@H](CCN)NC1=O (stereo partly drawn) [Example 20, Cis-4-aminocyclohexane carbonyl polymyxin B nonapeptide] ({Cyclohexanoyl(cis-4-NH2)}-[Thr(3ξ)][Dab][Dab][Dab][dF]L[Dab][Dab][Thr(3ξ)]; lactam 3-C)	MIC P. aeruginosa ATCC-47 ([3]; MIC = total drug concentration, strain ATCC-47): 0.125 micrograms/mL; MIC A. baumannii CCUG57249 ([4]; strain CCUG57249): ≤0.06 micrograms/mL
0.5	8	0.5	–	–	–	0.25	<0.06	4	–	CC(C)C[C@@H]1NC(=O)[C@@H](Cc2ccccc2)NC(=O)[C@H](CCN)NC(=O)[C@@H](NC(=O)[C@H](CCN)NC(=O)[C@@H](NC(=O)CCC(C)(C)N)C(C)O)CCNC(=O)[C@H](C(C)O)NC(=O)[C@H](CCN)NC(=O)[C@H](CCN)NC1=O (stereo partly shown) [Example 21, 4-Amino-4-methyl pentanoyl polymyxin B nonapeptide] (X14-[Thr(3ξ)][Dab][Dab][Dab][dF]L[Dab][Dab][Thr(3ξ)]; lactam 3-C)	MIC E. coli NCTC9001 ([2]; MIC = total drug concentration): 0.25 micrograms/mL; MIC K. pneumoniae ATCC-BAA2146 ([5]; strain ATCC-BAA2146): >32 micrograms/mL; MIC K. pneumoniae CCUG-59348 ([5]; strain CCUG-59348): >32 micrograms/mL; MIC K. pneumoniae NCTC-13438 ([5]; strain NCTC-13438): >32 micrograms/mL; MIC E. coli NCTC9001 ([7]; strain NCTC9001): >32 micrograms/mL
0.5	8	–	–	0.25	0.5	0.5	0.25	>32	–	CC(C)C[C@@H]1NC(=O)[C@@H](Cc2ccccc2)NC(=O)[C@H](CCN)NC(=O)[C@@H](NC(=O)[C@H](CCN)NC(=O)[C@@H](NC(=O)CC[C@H](C)N)C(C)O)CCNC(=O)[C@H](C(C)O)NC(=O)[C@H](CCN)NC(=O)[C@H](CCN)NC1=O (stereo partly drawn) [Example 24, 4S-aminopentanoyl polymyxin B nonapeptide] ({GABA(4S-Me)}-[Thr(3ξ)][Dab][Dab][Dab][dF]L[Dab][Dab][Thr(3ξ)]; lactam 3-C)	–
2	8	–	–	0.25	0.5	4	0.5	>32	–	CC(C)C[C@@H]1NC(=O)[C@@H](Cc2ccccc2)NC(=O)[C@H](CCN)NC(=O)[C@@H](NC(=O)[C@H](CCN)NC(=O)[C@@H](NC(=O)CCO)C(C)O)CCNC(=O)[C@H](C(C)O)NC(=O)[C@H](CCN)NC(=O)[C@H](CCN)NC1=O (stereo partly shown) [Example 26, 3-Hydroxypropanoyl polymyxinB nonapeptide] ({Propanoyl(3-OH)}-[Thr(3ξ)][Dab][Dab][Dab][dF]L[Dab][Dab][Thr(3ξ)]; lactam 3-C)	–
–	–	–	<0.06	–	–	–	–	–	–	CC(C)C[C@@H]1NC(=O)[C@@H](Cc2ccccc2)NC(=O)[C@H](CCN)NC(=O)[C@@H](NC(=O)[C@H](CCN)NC(=O)[C@@H](NC(=O)[C@H]2CC[C@@H](N)C2)C(C)O)CCNC(=O)[C@H](C(C)O)NC(=O)[C@H](CCN)NC(=O)[C@H](CCN)NC1=O (stereo partly drawn) [Example 34B, (1S,3R)-3- Aminocyclopentane carbonyl polymyxin B nonapeptide] (X8-[Thr(3ξ)][Dab][Dab][Dab][dF]L[Dab][Dab][Thr(3ξ)]; lactam 3-C)	MIC P. aeruginosa ATCC CRM-9027 ([3]; MIC = total drug concentration, strain ATCC CRM-9027): 0.25 micrograms/mL
1	4	–	0.125	≤0.06	–	–	–	–	≤0.06	CC(C)C[C@@H]1NC(=O)[C@@H](Cc2ccccc2)NC(=O)[C@H](CCN)NC(=O)[C@@H](NC(=O)[C@H](CCN)NC(=O)[C@@H](NC(=O)[C@H](CCN)NC(=O)C2CCNCC2)C(C)O)CCNC(=O)[C@H](C(C)O)NC(=O)[C@H](CCN)NC(=O)[C@H](CCN)NC1=O (stereo partly shown) [Example 53, Piperidin-4-yl carbonyl-polymyxin B decapeptide, trifluoroacetate salt] (H-[Inp][Dab][Thr(3ξ)][Dab][Dab][Dab][dF]L[Dab][Dab][Thr(3ξ)]; lactam 5-C)	MIC K. pneumoniae ATCC 4352 ([1]; MIC = total drug concentration): ≤0.06 micrograms/mL
1	4	–	0.25	≤0.06	–	–	–	–	≤0.06	CC(C)C[C@@H]1NC(=O)[C@@H](Cc2ccccc2)NC(=O)[C@H](CCN)NC(=O)[C@@H](NC(=O)[C@H](CCN)NC(=O)[C@@H](NC(=O)[C@H](CCCCN)NC(=O)C2CCNCC2)C(C)O)CCNC(=O)[C@H](C(C)O)NC(=O)[C@H](CCN)NC(=O)[C@H](CCN)NC1=O (stereo partly drawn) [Example 54, Piperidin-4-yl carbonyl-L-Lys-polymyxin B nonapeptide, trifluoroacetate salt] (H-[Inp]K[Thr(3ξ)][Dab][Dab][Dab][dF]L[Dab][Dab][Thr(3ξ)]; lactam 5-C)	MIC K. pneumoniae ATCC 4352 ([1]; MIC = total drug concentration): 0.125 micrograms/mL
1	4	–	0.125	0.25	–	–	–	–	0.25	CC(C)C[C@@H]1NC(=O)[C@@H](Cc2ccccc2)NC(=O)[C@H](CCN)NC(=O)[C@@H](NC(=O)[C@H](CCN)NC(=O)[C@@H](NC(=O)c2ccc(N3CCN(C)CC3)cc2)C(C)O)CCNC(=O)[C@H](C(C)O)NC(=O)[C@H](CCN)NC(=O)[C@H](CCN)NC1=O (stereo partly shown) [Example 55, 4-(4-Methyl-piperazin-1-yl) benzoyl polymyxin B nonapeptide] (X17-[Thr(3ξ)][Dab][Dab][Dab][dF]L[Dab][Dab][Thr(3ξ)]; lactam 3-C)	MIC K. pneumoniae ATCC-BAA-2146 [1, 13]: 1 micrograms/mL; MIC K. pneumoniae CCUG-59348 [1, 13]: 4 micrograms/mL; MIC P. aeruginosa ATCC 27853 [3, 13]: 0.25 micrograms/mL; MIC P. aeruginosa CCUG 59626 [3, 13]: 0.25 micrograms/mL; MIC E. coli ATCC25922 [2, 13]: 0.125 micrograms/mL
